# Assays:
# PAMPA permeability assay = type: in vitro ADME; conditions: for Papp at 5 h, 10 μM: pH 7, pH 7, 10 μM
# MRC5 cells = test: Cell viability assay in MRC5 cells (MTT)
# PDGFRβ [1] = biological target: T1, PDGFRβ (Homo sapiens (Human), UniProt P09619); conditions: read-out: Ki PDGFRβ; mean, n = 2 unless otherwise indicated
# PDGFRβ [2] = biological target: T1, PDGFRβ; test: PDGF-BB induced phosphorylation of PDGFRβ in fibroblasts (MRC5 cells, HTRF); type: cell-based; conditions: MRC5 cells; n = 1 unless otherwise indicated; read-out: PDGFBB-induced PDGFRβ phosphorylation in MRC5 cells (IC50)
# [3] = PAMPA, pH 7, PAMPA, donor and acceptor compartments
# [4] = pH 7, PAMPA, donor and acceptor compartments
# T1 sequence (P09619 33-1106): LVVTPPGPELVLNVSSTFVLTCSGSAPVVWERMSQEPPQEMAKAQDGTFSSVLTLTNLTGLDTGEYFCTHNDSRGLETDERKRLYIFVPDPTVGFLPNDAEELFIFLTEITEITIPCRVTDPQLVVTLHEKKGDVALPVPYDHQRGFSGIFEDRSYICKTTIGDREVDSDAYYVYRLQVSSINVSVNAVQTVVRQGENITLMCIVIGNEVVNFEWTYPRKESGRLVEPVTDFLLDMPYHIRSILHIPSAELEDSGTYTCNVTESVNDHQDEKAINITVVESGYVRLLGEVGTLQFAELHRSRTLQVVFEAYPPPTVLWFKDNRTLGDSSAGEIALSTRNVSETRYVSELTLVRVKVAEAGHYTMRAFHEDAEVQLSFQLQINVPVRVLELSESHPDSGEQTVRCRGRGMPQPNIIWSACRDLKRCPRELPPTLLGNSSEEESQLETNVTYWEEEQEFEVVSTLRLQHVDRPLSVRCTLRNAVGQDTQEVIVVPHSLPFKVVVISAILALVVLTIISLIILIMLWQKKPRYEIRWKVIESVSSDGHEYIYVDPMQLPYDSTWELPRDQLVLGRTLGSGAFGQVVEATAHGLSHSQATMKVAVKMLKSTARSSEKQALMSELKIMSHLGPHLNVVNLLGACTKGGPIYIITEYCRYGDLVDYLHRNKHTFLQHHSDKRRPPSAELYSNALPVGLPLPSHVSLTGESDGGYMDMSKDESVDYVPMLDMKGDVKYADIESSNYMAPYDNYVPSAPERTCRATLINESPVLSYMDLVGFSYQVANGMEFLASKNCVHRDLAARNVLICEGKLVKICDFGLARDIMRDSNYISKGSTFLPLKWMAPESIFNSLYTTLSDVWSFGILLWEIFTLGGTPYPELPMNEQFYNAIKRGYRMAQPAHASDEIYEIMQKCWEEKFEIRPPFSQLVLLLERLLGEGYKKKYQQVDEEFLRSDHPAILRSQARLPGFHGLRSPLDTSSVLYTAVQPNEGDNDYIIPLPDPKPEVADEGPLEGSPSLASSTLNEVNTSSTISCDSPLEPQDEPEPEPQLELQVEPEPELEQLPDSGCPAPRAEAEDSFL
Compound,"recovery at 5 hr, 10 μM (PAMPA permeability assay; [3]) [%]","Papp at 5 h, 10 μM (PAMPA permeability assay; PAMPA, 5 hr) [×10⁻⁶ cm/s]",Cell viability at 100 nM (%) (MRC5 cells),Cell viability at 300 nM (%) (MRC5 cells),Cell viability at 1000 nM (%) (MRC5 cells),Ki (PDGFRβ [1]) [nM],IC50 (PDGFRβ [2]) [nM],"% Recovery (PAMPA permeability assay; PAMPA, donor and acceptor compartments) [%]","Mean Papp (PAMPA permeability assay; pH 7, 10 μM, 5 hr)","recovery at 5 hr, 10 μM (PAMPA permeability assay; [4]) [%]"
COC(=O)c1cc2c(cc1C)/C(=C(/Nc1ccc(C(=O)NOCCN3CCN(C)CC3)c(F)c1)c1ccccc1)C(=O)N2 [Example 32],42.8,0.0192,93.5,82.3,66.3,4.92,3.09,–,–,–
COC(=O)c1ccc2c(c1)NC(=O)/C2=C(\Nc1ccc(C(=O)NOCCN2CCN(C)CC2)c(F)c1)c1ccccc1 [Example 33],71.9,0.00743,110.7,101.3,91.3,8.47,8.99,–,–,–
CCN1CCN(CCONC(=O)c2ccc(N/C(=C3\C(=O)Nc4cc(C(=O)OC)c(C)cc43)c3ccccc3)cc2)CC1 [Example 36],53.1,0.0301,108.8,93,65.9,8.46,9.44,–,–,–
COC(=O)c1ccc2c(c1)NC(=O)/C2=C(\Nc1ccc(C(=O)NOCCN2CC[C@H](N(C)C)C2)cc1)c1ccccc1 [Example 38],55.4,0.00569,89.3,90.8,93,6.91,14.6,–,–,–
COC(=O)c1ccc2c(c1)NC(=O)/C2=C(\Nc1ccc(C(=O)NOCCN2CCC(O)CC2)cc1)c1ccccc1 [Example 40],75,0.00954,103.8,103.8,110.5,7.66,29.2,–,–,–
COC(=O)c1ccc2c(c1)NC(=O)/C2=C(\Nc1ccc(C(=O)NOCCN2CCS(=O)(=O)CC2)cc1)c1ccccc1 [Example 41],59.6,0.00258,112.3,96.1,86.8,15,37.4,–,–,–
COC(=O)c1ccc2c(c1)NC(=O)/C2=C(\Nc1ccc(C(=O)NOCCN2CCNC(=O)C2)cc1)c1ccccc1 [Example 42],76.8,0.0264,114.5,109.6,118.3,7.06,56.3,–,–,–
COC(=O)c1ccc2c(c1)NC(=O)/C2=C(\Nc1ccc(C(=O)NOCCN2CCC(C#N)CC2)cc1)c1ccccc1 [Example 43],75.3,0.00798,96.5,91.8,83.9,32.4,25.7,–,–,–
COC(=O)c1cc2c(cc1C)/C(=C(/Nc1ccc(C(=O)NOCCN3CCCCC3)cc1)c1ccccc1)C(=O)N2 [Example 49],75.2,0.0768,124.5,110.8,69.4,31.1,40.2,–,–,–
COC(=O)c1cc2c(cc1C)/C(=C(/Nc1ccc(C(=O)NOCCN3CCC(N(C)C)CC3)cc1)c1ccccc1)C(=O)N2 [Example 50],179,0.0566,107.5,92.6,69.7,9.24,9.42,–,–,–
COC(=O)c1cc2c(cc1C)/C(=C(/Nc1ccc(C(=O)NOCCN3CC[C@H](N(C)C)C3)cc1)c1ccccc1)C(=O)N2 [Example 51],62,0.00306,86.5,85.8,71.2,9.44,9.39,74.7,0.00474 10^−6 cm s^−1,–
COC(=O)c1cc2c(cc1C)/C(=C(/Nc1ccc(C(=O)NOCCN3CCC(OC)CC3)cc1)c1ccccc1)C(=O)N2 [Example 52],76.2,0.279,62,50.9,59.8,17,21.8,–,–,–
COC(=O)c1cc2c(cc1C)/C(=C(/Nc1ccc(C(=O)N(C)OCCN(C)CCO)cc1)c1ccccc1)C(=O)N2 [Example 56],69.7,0.719,132,121,70.5,7.19,3.95,–,–,–
COC(=O)c1cc2c(cc1C)/C(=C(/Nc1ccc(C(=O)N(C)OCCN3CCN(CCO)CC3)cc1)c1ccccc1)C(=O)N2 [Example 58],49.5,0.0296,110.2,116.9,55.6,8.87,4.06,–,–,–
COC(=O)c1cc2c(cc1C)/C(=C(/Nc1ccc(C(=O)N(C)OCCN3C[C@@H]4C[C@H]3CN4)cc1)c1ccccc1)C(=O)N2 [Example 59],69.6,0.0364,123.5,107.7,103.8,9.19,25.4,–,–,–
COC(=O)c1cc2c(cc1C)/C(=C(/Nc1ccc(C(=O)N(C)OCCN3C4CCC3CNC4)cc1)c1ccccc1)C(=O)N2 [Example 60],–,0.0503,88.8,84.4,0.2,13,5.6,–,–,69.2
COC(=O)c1cc2c(cc1C)/C(=C(/Nc1ccc(C(=O)N(C)OCCN3CC4CCC(C3)N4)cc1)c1ccccc1)C(=O)N2 [Example 61],–,0.0205,83,86.6,35.2,18.3,7.84,–,–,64.4
